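Values below derive from 48-hour exposures of cells grown in 96-well plates, with endpoints linearly interpolated between the two concentrations bracketing the appropriate inhibition level. GI50 marks 50% less growth. TGI marks complete inhibition of growth.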 Some results are limits rather than exact numbers.

Some test systems named below: DLD-1 colon; DMS 273 small cell lung; KM20L2 colon; LXFL 529 NSCLC; M19-MEL melanoma; SNB-78 CNS; XF 498 CNS; RXF-631 renal; P388 leukemia; P388/ADR leukemia; SN12K1 renal.
Common to all, as to assay: NCI tumour cell line growth inhibition, 48 h

Consider `COc1c(Cl)c(Cl)c(OC)c2c1C(=O)C=CC2=O`, for which the TGI with DLD-1 colon is 29.5 µM; in the assay with DMS 273 small cell lung it was 31.5 µM; with KM20L2 colon it was above 100 µM; with LXFL 529 NSCLC it was 29.3 µM; in the assay on M19-MEL melanoma, 32.3 µM; in the assay on SNB-78 CNS, 26.7 µM. The molecule further gave a TGI in the assay on XF 498 CNS of 31 µM.

On to `COC(=O)c1ccccc1N=Cc1ccc(N(CCC#N)S(=O)(=O)c2ccccc2)cc1`, for which the TGI in the assay with DLD-1 colon, with DMS 273 small cell lung, in the assay with KM20L2 colon, with LXFL 529 NSCLC, with M19-MEL melanoma and in the assay on RXF-631 renal was above 100 µM each time. Further, the TGI with SNB-78 CNS and with XF 498 CNS was above 100 µM each time.

Regarding `C/C(=C/c1c(C)[nH]c(=O)[nH]c1=O)C(=O)O`, the TGI in the assay with DLD-1 colon was above 1380 µM; in the assay on DMS 273 small cell lung, above 1380 µM; with KM20L2 colon it was above 1370 µM; in the assay with M19-MEL melanoma it was above 1380 µM; in the assay on P388 leukemia, above 1370 µM; in the assay with P388/ADR leukemia, 1370 µM. Moreover, the values for the TGI in the assay on SN12K1 renal, in the assay with SNB-78 CNS and in the assay with XF 498 CNS were above 1380 µM, above 1380 µM and above 1370 µM, respectively. Further, the GI50 with P388 leukemia is above 1370 µM.

Consider `CC(C)(Oc1ccc(C(=O)c2ccc(Cl)cc2)cc1Cl)C(=O)N1CCN(c2ccccc2)CC1`, for which the TGI in the assay on DLD-1 colon, in the assay on DMS 273 small cell lung, in the assay on KM20L2 colon, with LXFL 529 NSCLC, in the assay on M19-MEL melanoma and with SNB-78 CNS was above 100 µM throughout. The TGI with XF 498 CNS was above 100 µM.

Consider `COc1ccc(N2C(=O)C3c4[nH]c5ccccc5c4C4CCC(C(C)(C)C)CC4C3C2=O)cc1OC` (configuration not stated), for which the TGI in the assay on DLD-1 colon was 39.9 µM; in the assay on DMS 273 small cell lung, 31.2 µM; in the assay with KM20L2 colon, above 100 µM; with LXFL 529 NSCLC, 32.5 µM; with M19-MEL melanoma it was above 100 µM; with SNB-78 CNS it was 56.4 µM. In the assay on XF 498 CNS, this molecule returned a TGI of 34.7 µM.

Regarding `CCCN(CCC)c1c([N+](=O)[O-])cc(C(=O)N(C)C)cc1[N+](=O)[O-]`, the TGI in the assay on DLD-1 colon, with DMS 273 small cell lung, in the assay on LXFL 529 NSCLC, in the assay on M19-MEL melanoma, in the assay with SNB-78 CNS and with XF 498 CNS was above 100 µM each time.

`NC(=S)N/N=C(\C(=O)Nc1ccc(Cl)c(Cl)c1)C1=NN(c2ccccc2)C(c2cccc([N+](=O)[O-])c2)CC1=O` (configuration not stated): the TGI is 47.5 µM in the assay with DLD-1 colon; 45.2 µM in the assay on DMS 273 small cell lung; 46.8 µM with KM20L2 colon; 48.1 µM in the assay on LXFL 529 NSCLC; 50.5 µM in the assay with M19-MEL melanoma; above 100 µM in the assay on RXF-631 renal. Moreover, the TGI in the assay with SNB-78 CNS and in the assay with XF 498 CNS was above 100 µM each time.

For the molecule `Cc1oc2c(C)c3oc(=O)cc(C)c3cc2c1CN`, the TGI was above 100 µM in the assay with DLD-1 colon; above 100 µM in the assay with KM20L2 colon; above 100 µM with LXFL 529 NSCLC; above 100 µM in the assay on M19-MEL melanoma; 90.4 µM with RXF-631 renal; above 100 µM in the assay on SNB-78 CNS. The TGI in the assay with XF 498 CNS amounted to 73.8 µM.

For `Oc1ccccc1C=Nc1ccccc1N=Cc1ccccc1O`, the TGI in the assay on DMS 273 small cell lung, with KM20L2 colon, in the assay with LXFL 529 NSCLC, in the assay with M19-MEL melanoma and in the assay on XF 498 CNS was above 100 µM in each case.

Consider `COc1cc(C(CC(OC)OC)=C(C#N)C#N)cc(OC)c1OC`, for which the TGI is 13.7 µM in the assay on DLD-1 colon; 27.6 µM in the assay with DMS 273 small cell lung; 69.4 µM with KM20L2 colon; above 100 µM in the assay with LXFL 529 NSCLC; 33.4 µM in the assay with M19-MEL melanoma; above 100 µM in the assay with SNB-78 CNS.

For the molecule `Cc1ccc(Nc2ccc(Nc3ccc(C)cc3S(=O)(=O)O)c3c2C(=O)c2ccccc2C3=O)c(S(=O)(=O)O)c1`, the TGI with DLD-1 colon, with DMS 273 small cell lung, with KM20L2 colon, in the assay with LXFL 529 NSCLC, in the assay with RXF-631 renal and in the assay on SNB-78 CNS was above 100 µM throughout.

These data come from PubChem BioAssay (NCI).
